Laboratory results as given in ChEMBL document CHEMBL4354793, “Current and emerging therapeutic targets of alzheimer's disease for the design of multi-target directed ligands” (Medchemcomm, 2019).

Key:
Assay type in all cases: functional
Mus musculus [1] = experiment: In vivo inhibition of AChE in po dosed mouse brain relative to control
Rattus norvegicus [2] = experiment: In vivo inhibition of AChE in po dosed rat brain relative to control
Oryctolagus cuniculus [3] = experiment: In vivo inhibition of AChE in po dosed rabbit brain relative to control
Mus musculus [4] = experiment: In vivo inhibition of MAO-B in po dosed mouse brain relative to control
Rattus norvegicus [5] = experiment: In vivo inhibition of MAO-B in po dosed rat brain relative to control
Oryctolagus cuniculus [6] = experiment: In vivo inhibition of MAO-B in po dosed rabbit brain relative to control

C#CCN[C@@H]1CCc2ccc(OC(=O)N(C)CC)cc21 [LADOSTIGIL]
inhibition (INH) (Mus musculus [1]): 25 - 40%
inhibition (INH) (Rattus norvegicus [2]): 25 - 40%
inhibition (INH) (Oryctolagus cuniculus [3]): 25 - 40%
inhibition (INH) (Mus musculus [4]): 70 - 90%
inhibition (INH) (Rattus norvegicus [5]): 70 - 90%
inhibition (INH) (Oryctolagus cuniculus [6]): 70 - 90%
